Experimental data from US20100292266A1, “Oxazolyl Piperidine Modulators of Fatty Acid Amide Hydrolase” (priority 2006, published 2010).

Molecular target: T1, FAAH (Homo sapiens, UniProt O00519)
T1 sequence (O00519 1-579): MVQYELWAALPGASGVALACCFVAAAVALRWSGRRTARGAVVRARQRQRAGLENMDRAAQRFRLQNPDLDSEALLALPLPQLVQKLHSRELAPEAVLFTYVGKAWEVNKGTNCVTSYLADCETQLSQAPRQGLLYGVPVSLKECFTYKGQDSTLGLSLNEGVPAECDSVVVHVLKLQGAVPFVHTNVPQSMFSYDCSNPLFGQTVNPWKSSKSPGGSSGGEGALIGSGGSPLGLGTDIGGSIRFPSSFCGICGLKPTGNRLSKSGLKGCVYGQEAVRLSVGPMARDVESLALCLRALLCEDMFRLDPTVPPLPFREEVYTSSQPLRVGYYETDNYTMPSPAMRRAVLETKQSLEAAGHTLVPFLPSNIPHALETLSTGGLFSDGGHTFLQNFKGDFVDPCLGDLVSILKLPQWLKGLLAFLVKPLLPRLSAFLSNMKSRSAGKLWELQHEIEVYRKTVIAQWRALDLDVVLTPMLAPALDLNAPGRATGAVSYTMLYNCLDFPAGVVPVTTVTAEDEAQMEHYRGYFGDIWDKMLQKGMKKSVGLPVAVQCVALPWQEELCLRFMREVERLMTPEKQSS
Assay: Assay Method 1: FAAH assay, 3H-anandamide hydrolysis in cell homogenate
Type: biochemical
Set-up: expressed in transfected cells
Conditions: T84 or transfected SK-N-MC cell homogenate, 80 nM 3H-AEA, 1 h rt, > = solubility limit or highest concentration tested
Protocol: A. Transfection of Cells with Human FAAH
(§1) A 10-cm tissue culture dish with a confluent monolayer of SK-N-MC cells was split 2 days (d) prior to transfection. Using sterile technique, the media was removed and the cells were detached from the dish by the addition of trypsin. One fifth of the cells were then placed onto a new 10-cm dish. Cells were grown in a 37° C. incubator with 5% CO2 in Minimal Essential Media Eagle with 10% Fetal Bovine Serum. After 2 d, cells were approximately 80% confluent. These cells were removed from the dish with trypsin and pelleted in a clinical centrifuge. The pellet was re-suspended in 400 μL complete media and transferred to an electroporation cuvette with a 0.4 cm gap between the electrodes. Supercoiled human FAAH cDNA (1 μg) was added to the cells and mixed. The voltage for the electroporation was set at 0.25 kV, and the capacitance was set at 960 μF. After electroporation, the cells were diluted into complete media (10 mL) and plated onto four 10-cm dishes. Because of the variability in the efficiency of electroporation, four different concentrations of cells were plated. The ratios used were 1:20, 1:10, and 1:5, with the remainder of the cells being added to the fourth dish. The cells were allowed to recover for 24 h before adding the selection media (complete media with 600 μg/mL G418). After 10 d, dishes were analyzed for surviving colonies of cells. Dishes with well-isolated colonies were used. Cells from individual colonies were isolated and tested.
(§2) The assay mixture consisted of 50 μL of the cell homogenate, 10 μL of the test compound, and 40 μL of anandamide [1-^3H-ethanolamine] (^3H-AEA, Perkin-Elmer, 10.3 Ci/mmol), which was added last, for a final tracer concentration of 80 nM. The reaction mixture was incubated at rt for 1 h. During the incubation, 96-well Multiscreen filter plates (catalog number MAFCNOB50; Millipore, Bedford, Mass., USA) were loaded with 25 μL of activated charcoal (Multiscreen column loader, catalog number MACL09625, Millipore) and washed once with 100 μL of MeOH. Also during the incubation, 96-well DYNEX MicroLite plates (catalog number NL510410) were loaded with 100 μL of MicroScint40 (catalog number 6013641, Packard Bioscience, Meriden, Conn., USA). After the 1 h incubation, 60 μL of the reaction mixture were transferred to the charcoal plates, which were then assembled on top of the DYNEX plates using Centrifuge Alignment Frames (catalog number MACF09604, Millipore). The unbound labeled ethanolamine was centrifuged through to the bottom plate (5 min at 2000 rpm), which was preloaded with the scintillant, as described above. The plates were sealed and left at rt for 1 h before counting on a Hewlett Packard TopCount.
(§3) Where activity is shown as greater than (>) a particular value, the value is the solubility limit of the compound in the assay medium or the highest concentration tested in the assay.

Row | IC50 | SMILES
1 | 100 nM | O=C(c1ncco1)C1CCN(S(=O)(=O)c2ccc3ccccc3c2)CC1 [Example 1, [1-(Naphthalene-2-sulfonyl)-piperidin-4-yl]-oxazol-2-yl-methanone]
2 | 8000 nM | O=C(c1ncco1)C1CCN(S(=O)(=O)c2cccc(Cl)c2)CC1 [Example 5, [1-(3-Chloro-benzenesulfonyl)-Diperidin-4-yl]-oxazol-2-yl-methanone]
3 | 2150 nM | O=C(c1ncco1)C1CCN(C(=O)c2ccc(Cl)cc2)CC1 [Example 11, [1-(4-Chloro-benzoyl)-piperidin-4-yl]-oxazol-2-yl-methanone]
4 | 25 nM | O=C(c1ncco1)C1CCN(Cc2ccc(OC(F)(F)F)cc2)CC1 [Example 36, Oxazol-2-yl-[1-(4-trifluoromethoxy-benzyl)-piperidin-4-yl]-methanone]
5 | 46 nM | CN(C)c1nc2ccccc2cc1CN1CCC(C(=O)c2ncco2)CC1 [Example 72, [1-(2-Dimethylamino-quinolin-3-ylmethyl)-piperidin-4-yl]-oxazol-2-yl-methanone]
6 | 260 nM | COc1ccc2cc(CN3CCC(C(=O)c4ncco4)CC3)ccc2c1 [Example 46, [1-(6-Methoxy-naphthalen-2-ylmethyl)-piperidin-4-yl]-oxazol-2-yl-methanone]
7 | 1200 nM | O=C(c1ncco1)C1CCN(S(=O)(=O)c2ccc(Cl)cc2)CC1 [Example 4, [1-(4-Chloro-benzenesulfonyl)-piperidin-4-yl]-oxazol-2-yl-methanone]
8 | 17 nM | Cc1ccc2nc(Cl)c(CN3CCC(C(=O)c4ncco4)CC3)cc2c1 [Example 74, [1-(2-Chloro-6-methyl-quinolin-3-ylmethyl)-piperidin-4-yl]-oxazol-2-yl-methanone]
9 | 3000 nM | O=C(c1ncco1)C1CCN(Cc2ccccc2)CC1 [Example 89, (1-Benzyl-piperidin-4-yl)-oxazol-2-yl-methanone]
10 | 175 nM | Cc1ccccc1CN1CCC(C(=O)c2ncco2)CC1 [Example 66, [1-(2-Methyl-benzyl)-piperidin-4-yl]-oxazol-2-yl-methanone]
11 | 1600 nM | O=C(c1ncco1)C1CCN(C(=O)CCc2ccccc2)CC1 [Example 14, 1-[4-(Oxazole-2-carbonyl)-piperidin-1-yl]-3-phenyl-propan-1-one]
12 | 113 nM | O=C(c1ncco1)C1CCN(Cc2ccc3c(c2)OCO3)CC1 [Example 15, (1-Benzo[1,3]dioxol-5-ylmethyl-piperidin-4-yl)-oxazol-2-yl-methanone]
13 | 78 nM | O=C(c1ncco1)C1CCN(Cc2cccc(Cl)c2)CC1 [Example 34, [1-(3-Chloro-benzyl)-piperidin-4-yl]-oxazol-2-yl-methanone]
14 | 4 nM | O=C(c1ncco1)C1CCN(Cc2ccc3ccccc3c2)CC1 [Example 88, (1-Naphthalen-2-ylmethyl-piperidin-4-yl)-oxazol-2-yl-methanone]
15 | 3 nM | O=C(c1ncco1)C1CCN(Cc2ccc3ccc(Cl)cc3n2)CC1 [Example 76, [1-(7-Chloro-quinolin-2-ylmethyl)-piperidin-4-yl]-oxazol-2-yl-methanone]
16 | 18 nM | O=C(c1ncco1)C1CCN(Cc2cnc3ccccc3c2)CC1 [Example 85, Oxazol-2-yl-(1-quinolin-3-ylmethyl-piperidin-4-yl)-methanone]
17 | 37 nM | Cn1c(CN2CCC(C(=O)c3ncco3)CC2)nc2ccccc21 [Example 49, [1-(1-Methyl-1H-benzoimidazol-2-ylmethyl)-piperidin-4-yl]-oxazol-2-yl-methanone]
18 | 309 nM | O=C(c1ncco1)C1CCN(Cc2ccc3cccnc3n2)CC1 [Example 41, (1-[1,8]Naphthyridin-2-ylmethyl-piperidin-4-yl)-oxazol-2-yl-methanone]
19 | 94 nM | Cn1ccc2ccc(CN3CCC(C(=O)c4ncco4)CC3)cc21 [Example 40, [1-(1-Methyl-1H-indol-6-ylmethyl)-piperidin-4-yl]-oxazol-2-yl-methanone]
20 | 80 nM | Cn1ccc2cc(CN3CCC(C(=O)c4ncco4)CC3)ccc21 [Example 39, [1-(1-Methyl-1H-indol-5-ylmethyl)-piperidin-4-yl]-oxazot-2-yl-methanone]

Molecular target: T2, Rat FAAH (Rattus norvegicus, UniProt P97612)
T2 construct: expressed in transfected cells
T2 sequence (P97612 1-579): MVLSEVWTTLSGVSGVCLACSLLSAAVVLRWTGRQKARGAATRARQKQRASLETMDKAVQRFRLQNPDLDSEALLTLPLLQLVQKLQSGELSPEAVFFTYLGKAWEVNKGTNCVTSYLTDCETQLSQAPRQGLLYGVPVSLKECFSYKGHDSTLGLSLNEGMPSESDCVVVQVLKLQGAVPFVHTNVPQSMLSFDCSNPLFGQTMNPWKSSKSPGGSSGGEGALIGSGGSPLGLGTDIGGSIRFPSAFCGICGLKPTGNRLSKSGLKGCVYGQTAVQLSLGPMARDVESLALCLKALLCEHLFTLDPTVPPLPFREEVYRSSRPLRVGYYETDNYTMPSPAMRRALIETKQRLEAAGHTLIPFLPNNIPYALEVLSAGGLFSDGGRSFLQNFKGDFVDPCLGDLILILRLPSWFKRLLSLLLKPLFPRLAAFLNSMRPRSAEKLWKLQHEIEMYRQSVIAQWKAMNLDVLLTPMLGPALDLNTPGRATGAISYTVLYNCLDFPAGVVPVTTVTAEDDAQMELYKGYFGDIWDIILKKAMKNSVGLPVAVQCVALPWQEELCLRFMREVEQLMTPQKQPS
Assay: Assay Method 2: FAAH assay, 3H-anandamide hydrolysis in cell homogenate
Type: biochemical
Conditions: transfected SK-N-MC cell homogenate, 80 nM 3H-AEA, 1 h rt, > = solubility limit or highest concentration tested
Protocol: A. Transfection of Cells with Rat FAAH
as §1, with “rat” for “human”
as §2, with “incubated at […] for 1” for “incubated at rt for 1”, “labeled ethanolamine . was centrifuged” for “labeled ethanolamine was centrifuged”
as §3

Row | IC50 | SMILES
21 | 1000 nM | O=C(c1ncco1)C1CCN(S(=O)(=O)c2ccc3ccccc3c2)CC1 [Example 1, [1-(Naphthalene-2-sulfonyl)-piperidin-4-yl]-oxazol-2-yl-methanone]
22 | 8000 nM | O=C(c1ncco1)C1CCN(S(=O)(=O)c2cccc(Cl)c2)CC1 [Example 5, [1-(3-Chloro-benzenesulfonyl)-Diperidin-4-yl]-oxazol-2-yl-methanone]
23 | 7500 nM | O=C(c1ncco1)C1CCN(C(=O)c2ccc(Cl)cc2)CC1 [Example 11, [1-(4-Chloro-benzoyl)-piperidin-4-yl]-oxazol-2-yl-methanone]
24 | 40 nM | O=C(c1ncco1)C1CCN(Cc2ccc(OC(F)(F)F)cc2)CC1 [Example 36, Oxazol-2-yl-[1-(4-trifluoromethoxy-benzyl)-piperidin-4-yl]-methanone]
25 | 38 nM | CN(C)c1nc2ccccc2cc1CN1CCC(C(=O)c2ncco2)CC1 [Example 72, [1-(2-Dimethylamino-quinolin-3-ylmethyl)-piperidin-4-yl]-oxazol-2-yl-methanone]
26 | 219 nM | COc1ccc2cc(CN3CCC(C(=O)c4ncco4)CC3)ccc2c1 [Example 46, [1-(6-Methoxy-naphthalen-2-ylmethyl)-piperidin-4-yl]-oxazol-2-yl-methanone]
27 | 8000 nM | O=C(c1ncco1)C1CCN(S(=O)(=O)c2ccc(Cl)cc2)CC1 [Example 4, [1-(4-Chloro-benzenesulfonyl)-piperidin-4-yl]-oxazol-2-yl-methanone]
28 | 87 nM | Cc1ccc2nc(Cl)c(CN3CCC(C(=O)c4ncco4)CC3)cc2c1 [Example 74, [1-(2-Chloro-6-methyl-quinolin-3-ylmethyl)-piperidin-4-yl]-oxazol-2-yl-methanone]
29 | 7000 nM | O=C(c1ncco1)C1CCN(Cc2ccccc2)CC1 [Example 89, (1-Benzyl-piperidin-4-yl)-oxazol-2-yl-methanone]
30 | 600 nM | Cc1ccccc1CN1CCC(C(=O)c2ncco2)CC1 [Example 66, [1-(2-Methyl-benzyl)-piperidin-4-yl]-oxazol-2-yl-methanone]
31 | 9000 nM | O=C(c1ncco1)C1CCN(C(=O)CCc2ccccc2)CC1 [Example 14, 1-[4-(Oxazole-2-carbonyl)-piperidin-1-yl]-3-phenyl-propan-1-one]
32 | 582 nM | O=C(c1ncco1)C1CCN(Cc2ccc3c(c2)OCO3)CC1 [Example 15, (1-Benzo[1,3]dioxol-5-ylmethyl-piperidin-4-yl)-oxazol-2-yl-methanone]
33 | 300 nM | O=C(c1ncco1)C1CCN(Cc2cccc(Cl)c2)CC1 [Example 34, [1-(3-Chloro-benzyl)-piperidin-4-yl]-oxazol-2-yl-methanone]
34 | 9 nM | O=C(c1ncco1)C1CCN(Cc2ccc3ccccc3c2)CC1 [Example 88, (1-Naphthalen-2-ylmethyl-piperidin-4-yl)-oxazol-2-yl-methanone]
35 | 8 nM | O=C(c1ncco1)C1CCN(Cc2ccc3ccc(Cl)cc3n2)CC1 [Example 76, [1-(7-Chloro-quinolin-2-ylmethyl)-piperidin-4-yl]-oxazol-2-yl-methanone]
36 | 43 nM | O=C(c1ncco1)C1CCN(Cc2cnc3ccccc3c2)CC1 [Example 85, Oxazol-2-yl-(1-quinolin-3-ylmethyl-piperidin-4-yl)-methanone]
37 | 91 nM | Cn1c(CN2CCC(C(=O)c3ncco3)CC2)nc2ccccc21 [Example 49, [1-(1-Methyl-1H-benzoimidazol-2-ylmethyl)-piperidin-4-yl]-oxazol-2-yl-methanone]
38 | 1750 nM | O=C(c1ncco1)C1CCN(Cc2ccc3cccnc3n2)CC1 [Example 41, (1-[1,8]Naphthyridin-2-ylmethyl-piperidin-4-yl)-oxazol-2-yl-methanone]
39 | 385 nM | Cn1ccc2ccc(CN3CCC(C(=O)c4ncco4)CC3)cc21 [Example 40, [1-(1-Methyl-1H-indol-6-ylmethyl)-piperidin-4-yl]-oxazol-2-yl-methanone]
40 | 2000 nM | Cn1ccc2cc(CN3CCC(C(=O)c4ncco4)CC3)ccc21 [Example 39, [1-(1-Methyl-1H-indol-5-ylmethyl)-piperidin-4-yl]-oxazot-2-yl-methanone]
